Data: patent US20210187014A1 (The Regents of the University of Colorado, a body corporate, priority 2018, published 2021)
Square brackets hold non-standard residues; d marks the D form. Peptide text beside a SMILES is read from it. Orn(N5-OH,N5-Ac) = CC(=O)N(O)CCC[C@H](N)C(=O)O

Tests used:
C. elegans [1] = assay: C. elegans larval growth assay: heat-killed E. coli plus trace live E. coli, worm volume; type: in vivo; details: for worm growth with dietary supplementation: worms fed heat-killed E. coli plus live entA- or entF- mutant E. coli (Ent-deficient food)
Excerpt: In one embodiment of the inventive technology, the present inventors created a unique assay to facilitate the identification of microbial metabolites that benefit growth and development of host animals. […] This unique feeding condition was used to search for E. coli mutants that fail to support normal worm growth, potentially due to their inability to provide specific metabolites to benefit host animals.
E. coli Keio collection screen. Preparation of heat-killed (HK) OP50 plates followed the procedure described previously (Qi et al., 2017). Standard overnight culture of E. coli OP50 grown in LB broth was concentrated to 1/10 vol and was then heat-killed in a 75° C. water bath for 90 min. The 150 µl of the HK-OP50 was spread onto one side of NGM plate. For preparation of bacterial mutant assay plates, E. coli Keio (Baba et al., 2006) mutants were grown overnight at 37° C. in LB medium with […] kanamycin. 0.2 uL of the bacterial culture (OD600) were seeded to the other side of HK OP50 plate. About 300 synchronized L1 worms were added to the screen plate, and cultured at 20° C., then scored for worm size at day 3 and day 4. The entire library was used for the primary screen; each bacterial mutant was screened once. For the secondary screen, 200 candidate mutants were screened (3 replicates) to confirm the slow growth phenotype.
Chemical supplementation of culture plates. For chemical supplementation, each chemical was dissolved in water or DMSO to generate a stock. The stock solution was added to HK OP50 and then spotted onto NGM plates. […] For CaEDTA supplementation (Kiang et al., 2014), 50 ul of CaEDTA (50 ug/ul) was spread onto the center of the NGM plates seeded with OP50, then different volume of the FeCl3[175 ug/ul] […] Bacterial growth analyses. Overnight cultures were diluted to a final OD600=0.01 in 200 μL of NGM liquid medium. Bacteria were grown in 96-well plates with shaking in a Synergy2 plate reader (BioTek) at 37° C. for 17 h. The OD600 was recorded at 20 min intervals.
Analysis of larval growth by measuring worm size. Synchronized L1 worms were seeded on the indicated NGM plate and grew to the indicated times. Photos were taken and worms volume in each photo were measured by WormSizer software (Moore et al., 2013).

[2] = Stability by NGAL fluorescence assay; type: physicochemical; details: same concentration and buffers, room temp, light
Excerpt: FIG. 25. […] Degradation is indicated by increased absorbance. […] Degradation is indicated by increased relative fluorescence. […] For all tests, dilutions were kept at room temp and exposed to light. Error is standard deviation of the mean.

MEL cells = assay: Erythroid differentiation of MEL cells (color change of cell pellets); type: cell-based, murine; details: equimolar supplementation
Experimental: FIG. 27. Ferric Enterobactin supplementation benefits differentiation of erythroid progenitor cells (MEL) to red blood cells. (FIG. 27A) MEL cells were grown with the indicated treatments. Cell pellets are shown. (FIG. 27B) Quantification of MEL color change presented as the average intensity of each cell pellet, normalized to the intensity of the control. Error bars are the standard deviation of three technical replicates.
MEL cells are murine erythroid progenitor cells that are arrested at the proerythroblast stage. In the laboratory, these cells are induced to undergo erythroid differentiation to red blood cells by addition of various chemicals (e.g. 2% DMSO) (Friend, 1971). Erythroid differentiation is an iron-dependent process that results in a color change in the differentiated cells. The present inventors tested if addition of Fe-Ent would positively impact the differentiation of wild-type MEL cells to red blood cells.

[3] = system: C. elegans smf-3/DMT1 mutant; assay: Growth of iron-deficient C. elegans smf-3/DMT1(-) mutant with iron chelator 2,2'-bipyridyl; type: in vivo
Experimental: FIG. 26. […] All tests were done on a smf-3/DMT1(-) mutant strain in a culture media where an iron chelator (2,2′-bipyridyl) was added to reduce the environmental iron level (FIG. 26A). […] This growth delay was rescued by supplementation with Ent, scored as the percentage of the population at the indicated growth stage. […] The entP,fepA: E. coli mutant cannot synthesize or utilize Enterobactin.
SMF-3/DMT1 is a conserved divalent metal transporter that transports iron into intestinal cells. The smf-3/DMT1 mutant has been established as an iron deficiency model in C. elegans. These mutants have defective iron uptake that results in iron deficiency (Romney et al 2011) and delayed growth under iron-poor growth conditions created by addition of an iron chelator (2,2′-bipyridyl) to the culture media (Raj an et al 2019).
To determine if the Enterobactin supplementation was benefiting the worm directly or benefiting the worm through an E. coli-dependent mechanism, the test was repeated using an E. coli double mutant that cannot synthesize or utilize Ent (entP,fepk).

C. elegans [4] = assay: Siderophore toxicity test: worm growth and mitochondrial morphology (mtGFP); type: in vivo; details: for defects in growth or mitochondrial morphology: solid medium, worms fed wild-type E. coli
Excerpt: FIG. 8. Bacterial enterobactin promotes C. elegans development. […] (8E) The entA- and entF-mutant E. coli strains colonized the host gut as efficiently as the parental wild-type strain. (FIG. 8F) Cartoon diagram of feeding condition, microscope images and bar graph showing that neither pyoverdine nor ferrichrome caused obvious growth defects in worms fed heat-killed food plus wild-type, live E. coli. (FIG. 8G) Fluorescence microscopy of worms containing mtGFP under the same feeding condition as in (FIG. 8F). […] “n” =number of worms scored. Data are represented as mean±SEM. ***P<0.0001.

C. elegans [5] = assay: Iron level in live worms by calcein-AM staining (and pftn-2::GFP reporter); type: in vivo
Experimental: The present inventors employed the commonly used fluorescent cell-permeable dye, calcein AM, of which emission is quenched by iron binding, and applied it to live worms as previously described to estimate the overall iron level in the host.
Live imaging of iron in worms was done as previously described (James et al., 2015). Briefly, worms were collected at different culture conditions, then co-cultured in M9 with 0.05 ug/ML calcein-AM (Invitrogen) for 1 h, then washed 3 times in 1 ml M9. Samples were then mounted for fluorescence microscopy.
For calcein-AM staining, the original images taken with GFP channel were used to measure the intensity. The value of staining intensity was determined by subtracting the background intensity from the calcein-AM stained intestine.

## O=C(O)c1cccc(O)c1O [2,3-DHBA, 2,3-dihydroxybenzoic acid]
C. elegans [1]
  worm growth with dietary supplementation: rescued worm growth on entA- but not entF-E. coli

## O=C(N[C@H]1COC(=O)[C@@H](NC(=O)c2cccc([O-])c2[O-])COC(=O)[C@@H](NC(=O)c2cccc([O-])c2[O-])COC1=O)c1cccc([O-])c1[O-].[Fe+3] [Fe-Ent, ferric enterobactin]
[2]
  stability of Ent versus Fe-Ent: more stable than Ent alone
MEL cells
  MEL differentiation to red blood cells: increase in MEL differentiation, and this increase was better than supplementation with equimolar FeCl3 alone
[3]; E. coli double mutant that cannot synthesize or utilize Ent
  growth of smf-3(-) mutants: independent of E. coli
[3]; iron chelator 2,2'-bipyridyl in media
  growth of smf-3(-) mutants: faster and to a greater extent than observed for Enterobactin or FeCl3 supplementation alone

## hemin
C. elegans [1]
  worm growth with dietary supplementation: did not impact animal growth

## pyoverdine
C. elegans [4]; liquid culture
  mitochondrial morphology (mtGFP): toxic to worms as it damages host mitochondria
C. elegans [4]
  defects in growth or mitochondrial morphology: no obvious defects
C. elegans [1]
  worm growth with dietary supplementation: failed to generate a similar impact on worm growth

## CC(=O)N([O-])CCC[C@@H]1NC(=O)CNC(=O)CNC(=O)CNC(=O)[C@H](CCCN([O-])C(C)=O)NC(=O)[C@H](CCCN([O-])C(C)=O)NC1=O.[Fe+3] [ferrichrome] (cyclo(GGG[Orn(N5-OH,N5-Ac)][Orn(N5-OH,N5-Ac)][Orn(N5-OH,N5-Ac)]))
C. elegans [4]
  defects in growth or mitochondrial morphology: no obvious defects
C. elegans [1]
  worm growth with dietary supplementation: failed to generate a similar impact on worm growth

## [Cl][Fe]([Cl])[Cl] [FeCl3, ferric chloride, reference compound]
C. elegans [5]; animals fed Ent-deficient food
  cellular iron level: nor raised cellular iron level
C. elegans [5]; iron-deficient condition, worms treated with CaEDTA
  iron level and growth rate defects: both defects were suppressed
C. elegans [1]; ferric chloride added to live wild-type E. coli, with heat-killed E. coli
  worm growth: worm growth defect
C. elegans [1]
  worm growth with dietary supplementation: neither suppressed the growth defect
